Results published in patent publication US9637476B2, “Atrasentan mandelate salts” (AbbVie Inc., priority 2013, dated 2017).
Several values for one entry are separate records, joined by “and”; a condition that tells them apart may be missing. Equal values may be shown once. Where a name gives a salt, the structure may show the parent alone. Read-outs that look alike come from different tables or passages of the source. Marks after values point to notes of the source that are not given here.

Experiments:
Format in all cases: physicochemical
[1] = Crystal morphology assessed by microscopy
[2] = Moisture sorption isotherm (DVS); settings: 25° C.; as the relative humidity decreased below 10%
Procedure: A study was conducted to evaluate the moisture sorption isotherms of atrasentan hemi-sulfate salt (1:1 stoichiometry), monohydrate, and atrasentan S-mandelate salt (1:1 stoichiometry), anhydrate. A sample (about 5 mg to about 20 mg) of the powder to be tested was loaded onto the tared pan of a DVS Advantage dynamic gravimetric water sorption analyzer (Surface Measurement Systems Ltd, Alperton, United Kingdom). The moisture sorption isotherm for each sample was collected at 10% relative humidity intervals as the relative humidity was adjusted in the following manner: (a) 0% to 90% to 0% to 90% to 40% for the hemi-sulfate salt, and (b) 0% to 90% to 0% for the S-mandelate salt. For each step, the dm/dt criteria were 0.001% over 5 minutes with a minimum dm/dt time of 30 minutes and a maximum dm/dt of 120 minutes. Data was collected isothermally at 25° C. with a nitrogen flow rate of […]. The sample was maintained at 30% relative humidity and analyzed by PXRD. The moisture sorption isotherms generated for the hemi-sulfate and S-mandelate salt samples are shown in FIG. 6-A and FIG. 6-B, respectively.

[3] = Oxidative stability (urea-H2O2 co-crystal, HPLC); settings: for RECOVERED (%): solid exposed to urea-H2O2 co-crystal, 40° C., HPLC, individual samples 1-3; for RECOVERED (%) / AVERAGE (%) recovered / AVERAGE % (NORMALIZED): seven days; for AVERAGE (%) recovered / AVERAGE % (NORMALIZED): urea-H2O2, 40° C.; for AVERAGE (%) recovered: mean of samples 1-3; for AVERAGE % (NORMALIZED): sample average normalized to freezer blank average
Procedure: About 1 mg of each solid was placed in a 4 mL glass vial and about 10 mg of urea-H2O2 co-crystal was placed in another 4 mL vial. The two vials then were connected by a connector (Kontes connector, 13-425X13-425, apt NO 747205-1313) and left in an oven at 40° C. for seven days. Blank samples were prepared by placing about 1 mg of each compound in a 4 mL vial and then storing the vial in a freezer at about −20° C. for the same period of time. The oven samples and freezer blanks were analyzed at the same time by HPLC. The measured data are reported in Table II-B below and the normalized data from Table II-B are shown in a bar chart in FIG. 3.

[4] = Bulk density and tap density (USP <616>); settings: unmilled; USP <616> Method I, 100 mL cylinder
Procedure: Bulk and tap density are measured following United States Pharmacopeia and National Formulary guidelines (USP <616>). Approximately 60 mL of each sample is added into a 100 mL graduated cylinder. The powder is carefully leveled without compacting, and the volume is read directly from the cylinder and used to calculate the bulk density according to the relationship: mass/volume. The cylinder containing the powder sample is then mechanically tapped using a VanKel Tap Density Tester (Model 50-1200, Varian, Inc., Palo Alto, Calif.) until there is no change in volume. The volume of the sample is then read and used in the calculation of tap density.
Bulk density and tap density were measured for samples of the following materials: (i) unmilled atrasentan hydrochloride salt having the morphology and particle size distribution listed below in Table 10; and (ii) unmilled atrasentan mandelate salt having the morphology and particle size distribution listed below in Table 10. […] Bulk density was measured in accordance with Bulk Density, Method I of United States Pharmacopeia and National Formulary Guidelines (USP <616>) except that a 100 mL cylinder was filled with the sample for the testing. Tap density was measured in accordance with Tapped Density, Method I of United States Pharmacopeia and National Formulary guidelines (USP <616>) except that a 100 mL cylinder was filled with the sample for the testing.

[5] = Morphology and particle size distribution of the unmilled samples; settings: for PARTICLE SIZE DISTRIBUTION D10 / PARTICLE SIZE DISTRIBUTION D50 / PARTICLE SIZE DISTRIBUTION D90: unmilled; for MORPHOLOGY: unmilled sample used for density measurement
[6] = Intrinsic dissolution rate as a function of chloride ion concentration; settings: for IDR (intrinsic dissolution rate): pH 2.0 phosphate buffer, 37° C., 50 rpm; for linear regression intercept a of IDR = a + b × [Cl−] / linear regression slope b of IDR = a + b × [Cl−]: pH 2.0, [Cl−] 0 to 0.17 M
Procedure: (§1) About 100 mg of the sample tested was prepared by compressing the sample in a stainless steel die under 1100 pounds force with a dwell time of one minute to form a pellet. The die (diameter: 0.373 inch, area: 0.704 cm^2) containing the pellet was submerged in 250 mL of a phosphate buffer dissolution test medium having a pH of 2.0 and a chloride ion concentration of 0 M, 0.017 M, or 0.17 M. The medium was stirred by a paddle at 50 rpm and maintained at 37° C. To measure the concentration of the sample material in test medium, a fiber optic dip probe (μDiss Profile, pION
Inc) was used to monitor the UV absorbance as a function of time. The measured data are reported in Table 13-A below and are shown graphically in FIG. 5.
The intrinsic dissolution data reported in Table 13-A were further evaluated using linear regression analysis.

[7] = Intrinsic dissolution rate as a function of pH; settings: for IDR (intrinsic dissolution rate): 37° C., 50 rpm, single runs
Procedure: as §1, with “of 2.0, 5.0,” for “of 2.0 and a chloride ion concentration of 0 M, 0.017 M,”, “or 7.4.” for “or 0.17 M.”, “in the” for “in test”, “pION Inc) was used to monitor the UV absorbance as a function of time. The measured data are reported in Table 12-A below and are shown graphically in FIG. 4.” for “pION”

CCCCN(CCCC)C(=O)CN1CC(c2ccc3c(c2)OCO3)C(C(=O)O)C1c1ccc(OC)cc1.O.O=S(=O)(O)O (stereo not drawn)
CRYSTAL MORPHOLOGY [1]: Needle | solid form change during moisture sorption isotherm [2]: partial conversion from the hydrate form to the anhydrate form

CCCCN(CCCC)C(=O)CN1CC(c2ccc3c(c2)OCO3)C(C(=O)O)C1c1ccc(OC)cc1.Cl (stereo not drawn)
CRYSTAL MORPHOLOGY [1]: Needle

CCCCN(CCCC)C(=O)CN1C[C@H](c2ccc3c(c2)OCO3)[C@@H](C(=O)O)[C@@H]1c1ccc(OC)cc1.Cl
CRYSTAL MORPHOLOGY [1]: Needle

CCCCN(CCCC)C(=O)CN1CC(c2ccc3c(c2)OCO3)C(C(=O)O)C1c1ccc(OC)cc1.O=C(O)C(O)c1ccccc1 (stereo not drawn)
CRYSTAL MORPHOLOGY [1]: Prism

CCCCN.CCCCN(CCCC)C(=O)CN1CC(c2ccc3c(c2)OCO3)C(C(=O)O)C1c1ccc(OC)cc1 (stereo not drawn)
CRYSTAL MORPHOLOGY [1]: Bar

CCCCN(CCCC)C(=O)CN1C[C@H](c2ccc3c(c2)OCO3)[C@@H](C(=O)O)[C@@H]1c1ccc(OC)cc1 [Hydrochloride]
RECOVERED (%) [3]: 87.62% and 87.21% and 83.11% | AVERAGE (%) recovered [3]: 85.98% | AVERAGE % (NORMALIZED) [3]: 89.48% | BULK DENSITY [4]: 0.11 g/mL | TAP DENSITY [4]: 0.20 g/mL | PARTICLE SIZE DISTRIBUTION D10 [5]: 6.0 μm | PARTICLE SIZE DISTRIBUTION D50 [5]: 20 μm | PARTICLE SIZE DISTRIBUTION D90 [5]: 86 μm | MORPHOLOGY [5]: Needle | IDR (intrinsic dissolution rate) ([6]; [Cl−] 0.0 M): 1.4 × 10^−1 (n = 1) mg/min/cm^2 | IDR (intrinsic dissolution rate) ([6]; [Cl−] 0.017 M): 1.3 × 10^−1 (n = 1) mg/min/cm^2 | IDR (intrinsic dissolution rate) ([6]; [Cl−] 0.17 M): 4.2 × 10^−2 (n = 1) mg/min/cm^2 | linear regression intercept a of IDR = a + b × [Cl−] [6]: a2 = 0.1377 | linear regression slope b of IDR = a + b × [Cl−] [6]: b2 = −0.5609 | CRYSTAL MORPHOLOGY ([1]; listed as Hydrochloride (1:1 Stoichiometry), Crystalline Form II): Needle

CCCCN(CCCC)C(=O)CN1C[C@H](c2ccc3c(c2)OCO3)[C@@H](C(=O)O)[C@@H]1c1ccc(OC)cc1 [Parent, (2R,3R,4S)-4-(1,3-benzodioxol-5-yl)-1-[2-(dibutylamino)-2-oxoethyl]-2-(4-methoxyphenyl)pyaolidine-3-carboxylic acid]
RECOVERED (%) [3]: 93.76% and 91.62% and 89.37% | AVERAGE (%) recovered [3]: 91.58% | AVERAGE % (NORMALIZED) [3]: 89.56% | IDR (intrinsic dissolution rate) ([7]; pH 2.0 phosphate buffer): 2.7 × 10^−2 (n = 1) mg/min/cm^2 | IDR (intrinsic dissolution rate) ([7]; pH 5.0 phosphate buffer): 5.1 × 10^−3 mg/min/cm^2 and 5.4 × 10^−3 mg/min/cm^2 | IDR (intrinsic dissolution rate) ([7]; pH 7.4 phosphate buffer): 3.6 × 10^−2 (n = 1) mg/min/cm^2 | CRYSTAL MORPHOLOGY ([1]; Hemi-hydrate): Prism

CCCCN(CCCC)C(=O)CN1C[C@H](c2ccc3c(c2)OCO3)[C@@H](C(=O)O)[C@@H]1c1ccc(OC)cc1 [Parent, Anhydrate, (2R,3R,4S)-4-(1,3-benzodioxol-5-yl)-1-[2-(dibutylamino)-2-oxoethyl]-2-(4-methoxyphenyl)pyaolidine-3-carboxylic acid]
CRYSTAL MORPHOLOGY [1]: Needle

CCCCN(CCCC)C(=O)CN1C[C@H](c2ccc3c(c2)OCO3)[C@@H](C(=O)O)[C@@H]1c1ccc(OC)cc1 [Parent, Quarter-hydrate, (2R,3R,4S)-4-(1,3-benzodioxol-5-yl)-1-[2-(dibutylamino)-2-oxoethyl]-2-(4-methoxyphenyl)pyaolidine-3-carboxylic acid]
CRYSTAL MORPHOLOGY [1]: Needle

CCCCN(CCCC)C(=O)CN1CC(c2ccc3c(c2)OCO3)C(C(=O)O)C1c1ccc(OC)cc1.CCCCN(CCCC)C(=O)CN1CC(c2ccc3c(c2)OCO3)C(C(=O)O)C1c1ccc(OC)cc1.O=C(O)C(O)c1ccccc1 (stereo not drawn) [S-Mandelate (2:1 Stoichiometry), Hydrate]
CRYSTAL MORPHOLOGY [1]: Prism

Mandelate
oxidative stability compared with atrasentan parent and hydrochloride salt ([3]; ANOVA of sample recovery proportion): greater oxidative stability | RECOVERED (%) [3]: 82.40% and 80.67% and 83.11% | AVERAGE (%) recovered [3]: 79.58% | AVERAGE % (NORMALIZED) [3]: 99.30% | BULK DENSITY [4]: 0.25 g/mL | TAP DENSITY [4]: 0.40 g/mL | PARTICLE SIZE DISTRIBUTION D10 [5]: 16 μm | PARTICLE SIZE DISTRIBUTION D50 [5]: 49 μm | PARTICLE SIZE DISTRIBUTION D90 [5]: 141 μm | MORPHOLOGY [5]: Prismatic | IDR (intrinsic dissolution rate) ([7]; pH 5.0 phosphate buffer): 2.1 × 10^−2 mg/min/cm^2 and 1.8 × 10^−2 mg/min/cm^2 | IDR (intrinsic dissolution rate) ([7]; pH 7.4 phosphate buffer): 1.1 × 10^−1 mg/min/cm^2 and 1.0 × 10^−1 mg/min/cm^2 | intrinsic dissolution rate compared with atrasentan parent ([7]; paired t-test, pH 2.0, 5.0, 7.4): statistically greater intrinsic dissolution rate | IDR (intrinsic dissolution rate) ([6]; [Cl−] 0.0 M): 1.0 × 10^−1 (n = 1) mg/min/cm^2 | IDR (intrinsic dissolution rate) ([6]; [Cl−] 0.017 M): 1.0 × 10^−1 (n = 1) mg/min/cm^2 | IDR (intrinsic dissolution rate) ([6]; [Cl−] 0.17 M): 8.3 × 10^−2 (n = 3)** mg/min/cm^2 | sensitivity of intrinsic dissolution rate to chloride ion concentration compared with hydrochloride salt ([6]; linear regression slopes): less sensitive to chloride ion concentration | linear regression intercept a of IDR = a + b × [Cl−] [6]: a1 = 0.1035 | linear regression slope b of IDR = a + b × [Cl−] [6]: b1 = −0.1222 | CRYSTAL MORPHOLOGY [1]: Prism
